Measured values taken from patent publication US12264134B2 (Merck Sharp & Dohme LLC, priority 2018, dated 2025).

molecular target: IDO1 (Homo sapiens, UniProt P14902); assay: IDO1 Cellular Assay in HeLa Cells Stimulated with IFNγ; assay type: cell-based; conditions: read-out: HeLa Cell Potency, IC50
Sequence (P14902 whole entry): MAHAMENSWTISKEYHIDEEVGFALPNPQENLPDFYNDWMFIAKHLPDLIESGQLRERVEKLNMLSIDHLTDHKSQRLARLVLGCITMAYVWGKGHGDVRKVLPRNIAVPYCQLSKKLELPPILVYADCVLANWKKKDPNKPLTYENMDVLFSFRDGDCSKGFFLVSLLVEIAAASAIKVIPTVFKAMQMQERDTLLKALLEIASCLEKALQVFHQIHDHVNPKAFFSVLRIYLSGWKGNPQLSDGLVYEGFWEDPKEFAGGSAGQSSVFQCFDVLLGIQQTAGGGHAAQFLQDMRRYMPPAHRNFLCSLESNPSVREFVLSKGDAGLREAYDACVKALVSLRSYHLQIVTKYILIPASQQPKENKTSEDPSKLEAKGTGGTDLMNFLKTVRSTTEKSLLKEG

| Structure (SMILES) | IC50 [nM] |
| --- | --- |
| Cc1cccc(N2CCN(C(=O)Cn3nc(C(=O)N4CCC(C(N)=O)CC4)c4c3CCC4)CC2)c1C [Example 137, 1-(1-{2-[4-(2,3-dimethylphenyl)piperazin-1-yl]-2-oxoethyl}-1,4,5,6-tetrahydrocyclopenta[c]pyrazole-3-carbonyl)piperidine-4-carboxamide] | 19.3 |
| Cc1cccc(N2CCN(C(=O)Cn3nc(C(=O)N4CCC(n5nccn5)CC4)c4c3CCC4)CC2)c1C [Example 138, 1-[4-(2,3-dimethylphenyl)piperazin-1-yl]-2-{3-[4-(2H-1,2,3-triazol-2-yl)piperidine-1-carbonyl]-5,6-dihydrocyclopenta[c]pyrazol-1(4H)-yl}ethan-1-one] | 3.92 |
| Cc1cccc(N2CCN(C(=O)Cn3nc(C(=O)N4CCC(S(C)(=O)=O)CC4)c4c3CCC4)CC2)c1C [Example 139, 1-[4-(2,3-dimethylphenyl)piperazin-1-yl]-2-{3-[4-(methylsulfonyl)piperidine-1-carbonyl]-5,6-dihydrocyclopenta[c]pyrazol-1(4H)-yl}ethan-1-one] | 6.98 |
| Cc1cccc(N2CCN(C(=O)Cn3nc(C(=O)N4CCC5(CCC(=O)N5C)CC4)c4c3CCC4)CC2)c1C [Example 140, 8-(1-{2-[4-(2,3-dimethylphenyl)piperazin-1-yl]-2-oxoethyl}-1,4,5,6-tetrahydrocyclopenta[c]pyrazole-3-carbonyl)-1-methyl-1,8-diazaspiro[4.5]decan-2-one] | 7.33 |
| Cc1cccc(N2CCN(C(=O)Cn3nc(C(=O)N4CCC5(CC4)CC5CO)c4c3CCC4)CC2)c1C (centres unmarked) [Example 143, 1-[4-(2,3-dimethylphenyl)piperazin-1-yl]-2-{3-[1-(hydroxymethyl)-6-azaspiro[2.5]octane-6-carbonyl]-5,6-dihydrocyclopenta[c]pyrazol-1(4H)-yl}ethan-1-one] | 1.9 |
| Cc1cccc(N2CCN(C(=O)Cn3nc(C(=O)N4CCC(C(C)(C)O)CC4)c4c3CCC4)CC2)c1C [Example 144, 1-[4-(2,3-dimethylphenyl)piperazin-1-yl]-2-{3-[4-(2-hydroxypropan-2-yl)piperidine-1-carbonyl]-5,6-dihydrocyclopenta[c]pyrazol-1(4H)-yl}ethan-1-one] | 1.58 |
| Cc1cccc(N2CCN(C(=O)Cn3nc(C(=O)N4CCC(c5cc[nH]n5)CC4)c4c3CCC4)CC2)c1C [Example 145, 1-[4-(2,3-dimethylphenyl)piperazin-1-yl]-2-{3-[4-(1H-pyrazol-3-yl)piperidine-1-carbonyl]-5,6-dihydrocyclopenta[c]pyrazol-1(4H)-yl}ethan-1-one] | 1.77 |
| Cc1cccc(N2CCN(C(=O)Cn3nc(C(=O)N4CCC(O)C(CO)C4)c4c3CCC4)CC2)c1C (centres unmarked) [Example 148, 1-[4-(2,3-dimethylphenyl)piperazin-1-yl]-2-{3-[4-hydroxy-3-(hydroxymethyl)piperidine-1-carbonyl]-5,6-dihydrocyclopenta[c]pyrazol-1(4H)-yl}ethan-1-one] | 7.98 |
| Cc1cccc(N2CCN(C(=O)Cn3nc(C(=O)N4CCC(O)C(F)(F)C4)c4c3CCC4)CC2)c1C (centres unmarked) [Example 149, 2-[3-(3,3-difluoro-4-hydroxypiperidine-1-carbonyl)-5,6-dihydrocyclopenta[c]pyrazol-1(4H)-yl]-1-[4-(2,3-dimethylphenyl)piperazin-1-yl]ethan-1-one] | 3.96 |
| Cc1cccc(N2CCN(C(=O)Cn3nc(C(=O)N4C5CCC4CC(O)C5)c4c3CCC4)CC2)c1C (centres unmarked) [Example 150, 1-[4-(2,3-dimethylphenyl)piperazin-1-yl]-2-[3-(3-hydroxy-8-azabicyclo[3.2.1]octane-8-carbonyl)-5,6-dihydrocyclopenta[c]pyrazol-1(4H)-yl]ethan-1-one] | 18.5 |
| Cc1cccc(N2CCN(C(=O)Cn3nc(C(=O)N4CC5CCC4CC5O)c4c3CCC4)CC2)c1C (centres unmarked) [Example 151, 1-[4-(2,3-dimethylphenyl)piperazin-1-yl]-2-[3-(5-hydroxy-2-azabicyclo[2.2.2]octane-2-carbonyl)-5,6-dihydrocyclopenta[c]pyrazol-1(4H)-yl]ethan-1-one] | 4.63 |
| Cc1cccc(N2CCN(C(=O)Cn3nc(C(=O)N4CC5CCC4CC5O)c4c3CCC4)CC2)c1C (centres unmarked) [Example 152, 1-[4-(2,3-dimethylphenyl)piperazin-1-yl]-2-[3-(5-hydroxy-2-azabicyclo[2.2.2]octane-2-carbonyl)-5,6-dihydrocyclopenta[c]pyrazol-1(4H)-yl]ethan-1-one] | 34.2 |
| Cc1cccc(N2CCN(C(=O)Cn3nc(C(=O)N4CC5CCC(F)(F)C5C4)c4c3CCC4)CC2)c1C (centres unmarked) [Example 153, 2-[3-(4,4-difluorohexahydrocyclopenta[c]pyrrole-2(1H)-carbonyl)-5,6-dihydrocyclopenta[c]pyrazol-1(4H)-yl]-1-[4-(2,3-dimethylphenyl)piperazin-1-yl]ethan-1-one] | 3.19 |
| Cc1cccc(N2CCN(C(=O)Cn3nc(C(=O)N4CCC(CCO)C4)c4c3CCC4)CC2)c1C (centres unmarked) [Example 154, 1-[4-(2,3-dimethylphenyl)piperazin-1-yl]-2-{3-[3-(2-hydroxyethyl)pyrrolidine-1-carbonyl]-5,6-dihydrocyclopenta[c]pyrazol-1(4H)-yl}ethan-1-one] | 2.99 |
| Cc1cccc(N2CCN(C(=O)Cn3nc(C(=O)N4CCOC(CO)C4)c4c3CCC4)CC2)c1C (centres unmarked) [Example 155, 1-[4-(2,3-dimethylphenyl)piperazin-1-yl]-2-{3-[2-(hydroxymethyl)morpholine-4-carbonyl]-5,6-dihydrocyclopenta[c]pyrazol-1(4H)-yl}ethan-1-one] | 28.5 |
| Cc1cccc(N2CCN(C(=O)Cn3nc(C(=O)N4CCOC(CO)C4)c4c3CCC4)CC2)c1C (centres unmarked) [Example 156, 1-[4-(2,3-dimethylphenyl)piperazin-1-yl]-2-{3-[2-(hydroxymethyl)morpholine-4-carbonyl]-5,6-dihydrocyclopenta[c]pyrazol-1(4H)-yl}ethan-1-one] | 29.3 |
| Cc1cccc(N2CCN(C(=O)Cn3nc(C(=O)N4CCN(C(C)C)CC4)c4c3CCC4)CC2)c1C [Example 159, 1-[4-(2,3-dimethylphenyl)piperazin-1-yl]-2-{3-[4-(propan-2-yl)piperazine-1-carbonyl]-5,6-dihydrocyclopenta[c]pyrazol-1(4H)-yl}ethan-1-one] | 25.2 |
| Cc1cccc(N2CCN(C(=O)Cn3nc(C(=O)N4CCN(CCO)CC4)c4c3CCC4)CC2)c1C [Example 162, 1-[4-(2,3-dimethylphenyl)piperazin-1-yl]-2-{3-[4-(2-hydroxyethyl)piperazine-1-carbonyl]-5,6-dihydrocyclopenta[c]pyrazol-1(4H)-yl}ethan-1-one] | 10.5 |
| Cc1cccc(N2CCN(C(=O)Cn3nc(C(=O)N4CCC5(CC4)COC(=O)N5)c4c3CCC4)CC2)c1C [Example 163, 8-(1-{2-[4-(2,3-dimethylphenyl)piperazin-1-yl]-2-oxoethyl}-1,4,5,6-tetrahydrocyclopenta[c]pyrazole-3-carbonyl)-3-oxa-1,8-diazaspiro[4.5] decan-2-one] | 10.3 |
| Cc1cccc(N2CCN(C(=O)Cn3nc(C(=O)N4CCC(N5CCCC5)CC4)c4c3CCC4)CC2)c1C [Example 164] | 68.9 |
| Cc1cccc(N2CCN(C(=O)Cn3nc(C(=O)N4CCN(C)[C@@H](C)C4)c4c3CCC4)CC2)c1C [Example 166, 1-[4-(2,3-dimethylphenyl)piperazin-1-yl]-2-{3-[(3S)-3,4-dimethylpiperazine-1-carbonyl]-5,6-dihydrocyclopenta[c]pyrazol-1(4H)-yl}ethan-1-one] | 6.18 |
| Cc1cccc(N2CCN(C(=O)Cn3nc(C(=O)N4CCC(O)(C(N)=O)CC4)c4c3CCC4)CC2)c1C [Example 169, 1-(1-{2-[4-(2,3-dimethylphenyl)piperazin-1-yl]-2-oxoethyl}-1,4,5,6-tetrahydrocyclopenta[c]pyrazole-3-carbonyl)-4-hydroxypiperidine-4-carboxamide] | 30.4 |
| Cc1cccc(N2CCN(C(=O)Cn3nc(C(=O)N4CCC(O)(CCC(F)(F)F)CC4)c4c3CCC4)CC2)c1C [Example 170, 1-[4-(2,3-dimethylphenyl)piperazin-1-yl]-2-{3-[4-hydroxy-4-(3,3,3-trifluoropropyl)piperidine-1-carbonyl]-5,6-dihydrocyclopenta[c]pyrazol-1(4H)-yl}ethan-1-one] | 6.31 |
| Cc1cccc(N2CCN(C(=O)Cn3nc(C(=O)N4CCC5(C4)CC5(F)F)c4c3CCC4)CC2)c1C (centres unmarked) [Example 171, 2-[3-(1,1-difluoro-5-azaspiro[2.4]heptane-5-carbonyl)-5,6-dihydrocyclopenta[c]pyrazol-1(4H)-yl]-1-[4-(2,3-dimethylphenyl)piperazin-1-yl]ethan-1-one] | 5.79 |
| Cc1cccc(N2CCN(C(=O)Cn3nc(C(=O)N4CCC5(CCNC5)CC4)c4c3CCC4)CC2)c1C [Example 175, 2-[3-(2,8-diazaspiro[4.5]decane-8-carbonyl)-5,6-dihydrocyclopenta[c]pyrazol-1(4H)-yl]-1-[4-(2,3-dimethylphenyl)piperazin-1-yl]ethan-1-one] | 498 |
| Cc1cccc(N2CCN(C(=O)Cn3nc(C(=O)N4CCC(C)(N)CC4)c4c3CCC4)CC2)c1C [Example 176, 2-[3-(4-amino-4-methylpiperidine-1-carbonyl)-5,6-dihydrocyclopenta[c]pyrazol-1(4H)-yl]-1-[4-(2,3-dimethylphenyl)piperazin-1-yl]ethan-1-one] | 476 |
| Cc1cccc(N2CCN(C(=O)Cn3nc(C(=O)N4CCC5(CCCN5)CC4)c4c3CCC4)CC2)c1C [Example 177, 2-[3-(1,8-diazaspiro[4.5]decane-8-carbonyl)-5,6-dihydrocyclopenta[c]pyrazol-1(4H)-yl]-1-[4-(2,3-dimethylphenyl)piperazin-1-yl]ethan-1-one] | 405 |
| Cc1cccc(N2CCN(C(=O)Cn3nc(C(=O)N4CCC(F)(CN)CC4)c4c3CCC4)CC2)c1C [Example 178, 2-{3-[4-(aminomethyl)-4-fluoropiperidine-1-carbonyl]-5,6-dihydrocyclopenta[c]pyrazol-1(4H)-yl}-1-[4-(2,3-dimethylphenyl)piperazin-1-yl]ethan-1-one] | 16.4 |
| Cc1cccc(N2CCN(C(=O)Cn3nc(C(=O)N4CCC(C)(CN)CC4)c4c3CCC4)CC2)c1C [Example 179, 2-{3-[4-(aminomethyl)-4-methylpiperidine-1-carbonyl]-5,6-dihydrocyclopenta[c]pyrazol-1(4H)-yl}-1-[4-(2,3-dimethylphenyl)piperazin-1-yl]ethan-1-one] | 82.8 |
